Test results as given in US12371436B2, “Substituted benzodiazoliums as ENaC inhibitors” (ENTERPRISE THERAPEUTICS LIMITED, priority 2016, dated 2025).

Biological target: T1, ENaC (Homo sapiens, UniProt P37088+P51168+P51170)
T1 construct: host or cells: primary human bronchial epithelial cells (HBECs) differentiated at air-liquid interface
T1 sequence (P37088 1-669): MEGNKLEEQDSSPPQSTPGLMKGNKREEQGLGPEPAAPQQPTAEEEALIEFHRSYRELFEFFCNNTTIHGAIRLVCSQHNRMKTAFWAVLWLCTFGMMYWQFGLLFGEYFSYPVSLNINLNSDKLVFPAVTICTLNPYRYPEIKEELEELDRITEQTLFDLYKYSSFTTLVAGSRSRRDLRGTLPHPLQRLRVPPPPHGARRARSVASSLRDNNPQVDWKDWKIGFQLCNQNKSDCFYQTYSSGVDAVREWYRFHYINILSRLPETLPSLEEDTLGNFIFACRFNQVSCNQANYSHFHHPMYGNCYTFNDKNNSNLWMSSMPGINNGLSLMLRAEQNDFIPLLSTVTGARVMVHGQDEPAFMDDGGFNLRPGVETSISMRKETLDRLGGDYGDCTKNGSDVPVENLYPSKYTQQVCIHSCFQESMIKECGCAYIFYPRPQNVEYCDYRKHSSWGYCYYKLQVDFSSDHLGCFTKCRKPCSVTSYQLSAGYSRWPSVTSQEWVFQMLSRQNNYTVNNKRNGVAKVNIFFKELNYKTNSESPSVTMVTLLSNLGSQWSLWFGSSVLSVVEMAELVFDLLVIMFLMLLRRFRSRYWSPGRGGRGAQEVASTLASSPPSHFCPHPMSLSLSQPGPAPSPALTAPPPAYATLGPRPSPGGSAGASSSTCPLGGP
T1 sequence (P51168 1-640): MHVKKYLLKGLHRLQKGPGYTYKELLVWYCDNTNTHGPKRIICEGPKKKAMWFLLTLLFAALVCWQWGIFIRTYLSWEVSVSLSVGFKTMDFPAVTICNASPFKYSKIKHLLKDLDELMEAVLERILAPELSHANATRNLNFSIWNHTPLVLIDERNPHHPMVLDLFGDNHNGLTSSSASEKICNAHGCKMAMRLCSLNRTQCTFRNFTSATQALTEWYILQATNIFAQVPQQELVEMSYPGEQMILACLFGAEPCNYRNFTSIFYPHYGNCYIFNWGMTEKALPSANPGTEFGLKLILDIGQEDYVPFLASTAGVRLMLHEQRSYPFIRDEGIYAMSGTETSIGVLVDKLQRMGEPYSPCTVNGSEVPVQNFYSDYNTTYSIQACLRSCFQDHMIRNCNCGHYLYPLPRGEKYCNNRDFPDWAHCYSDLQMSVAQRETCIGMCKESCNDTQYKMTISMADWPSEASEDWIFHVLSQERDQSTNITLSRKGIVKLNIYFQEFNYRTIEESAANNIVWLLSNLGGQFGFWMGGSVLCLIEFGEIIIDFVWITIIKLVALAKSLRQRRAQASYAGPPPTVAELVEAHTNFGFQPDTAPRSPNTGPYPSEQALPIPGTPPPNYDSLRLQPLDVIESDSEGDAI
T1 sequence (P51170 1-649): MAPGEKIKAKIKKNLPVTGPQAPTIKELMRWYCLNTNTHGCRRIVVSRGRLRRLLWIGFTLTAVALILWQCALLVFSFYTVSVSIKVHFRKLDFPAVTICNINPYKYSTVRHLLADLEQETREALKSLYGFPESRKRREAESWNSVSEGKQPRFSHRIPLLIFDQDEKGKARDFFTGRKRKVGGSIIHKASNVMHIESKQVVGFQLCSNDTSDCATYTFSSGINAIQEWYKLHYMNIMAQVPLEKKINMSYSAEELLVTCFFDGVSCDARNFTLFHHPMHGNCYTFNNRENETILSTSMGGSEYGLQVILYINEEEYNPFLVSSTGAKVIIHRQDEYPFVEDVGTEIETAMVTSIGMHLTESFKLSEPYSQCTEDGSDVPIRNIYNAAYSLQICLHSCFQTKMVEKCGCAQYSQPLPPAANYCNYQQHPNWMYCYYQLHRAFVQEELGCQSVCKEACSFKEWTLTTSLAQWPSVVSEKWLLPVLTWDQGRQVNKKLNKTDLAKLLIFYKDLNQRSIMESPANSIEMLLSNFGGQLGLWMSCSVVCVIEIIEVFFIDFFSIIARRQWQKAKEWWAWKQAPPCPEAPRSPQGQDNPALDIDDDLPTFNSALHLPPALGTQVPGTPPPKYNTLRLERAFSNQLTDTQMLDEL
Assay: Short circuit current assay to determine ENaC blocker potency in human bronchial epithelial cells
Assay type: cell-based
Conditions: 50% inhibition of total amiloride-sensitive ISC, apical addition, read-out: Averages.ENaC IC50 (nM) Avg
Description: Example 68—Short circuit current assay to determine ENaC blocker potency in human bronchial epithelial cells
Human bronchial epithelial cells (HBECs) (Lonza, UK) were cultured using a modification of the method described by Coote et al, (2008). Cells were seeded into plastic T-75 flasks and grown in Bronchial Epithelial Cell Growth Medium (BEGM) (Lonza, UK) supplemented with bovine pituitary extract (52 ng/mL), hydrocortisone (0.5 μg/mL), human recombinant Epidermal Growth Factor (0.5 ng/mL), epinephrine (0.5 ng/mL), transferrin (10 ng/mL), insulin (5 ng/mL), retinoic acid (0.1 ng/mL), triiodothyronine (6.5 ng/mL), gentamycin (50 μg/mL) and amphotericin-B (50 ng/mL). Medium was changed every 48 hours until cells were 90% confluent. Cells were then passaged and seeded (8.25×10^5 cells/insert) onto polycarbonate Snapwell™ inserts (Costar, UK) in differentiation media containing 50% DMEM in BGEM with the same supplements as above but without triiodothyronine and a final retinoic acid concentration of 50 nM (all-trans retinoic acid; Sigma-Aldrich, UK). Cells were maintained submerged for the first 7 days in culture after which time they were exposed to an apical air interface for the remainder of the culture period. From the first day of establishment of an ALI, HBEC were fed with a DMEM:HAMS F-12 (1:1) media containing 2% Ultroser G (Pall BioSepra, France) with gentamycin (50 μg/mL) and amphotericin B (50 ng/mL). Cells were used for short-circuit current assay between days 14-21 after the establishment of the ALI. At all stages of culture, cells were maintained at 37° C. in 5% CO2 in an air incubator.
Short-Circuit Current (ISC) Measurements
Snapwell inserts were mounted in Costar Vertical Diffusion Chambers (Costar, UK) and were bathed with continuously gassed Ringer solution (5% CO2 in O2; pH 7.4) maintained at 37° C. containing (in mM): 120 NaCl, 25 NaHCO3, 3.3 KH2PO4, 0.8 K2HPO4, 1.2 CaCl2, 1.2 MgCl2 and 10 glucose. The solution osmolarity was always between 280-300 mOsm/kg H2O for all physiological salt solutions used. Cells were voltage clamped to 0 mV (model EVC4000, WPI). Transepithelial resistance (RT) was measured by applying a 2 mV pulse at 30 s intervals and calculating RT by Ohm's law. Data were recorded using a PowerLab workstation (ADlnstruments, UK).
ENaC blocker compounds were added to the apical chamber from a 1000-fold stock solution (prepared in DMSO) to achieve a cumulative concentration response in terms of the inhibition of the basal ISC. At the completion of the concentration response, a supra-maximal concentration of amiloride (10 μM) was added. The concentration of test compound that induced a 50% inhibition of the total amiloride-sensitive ISC (IC50) was calculated using GraphPad Prism v6.05. The results are presented in Table 2, from which it can be seen that the compounds of the present invention have ENaC inhibiting activity.

Row | SMILES | IC50
1 | CCn1c(CNC(=O)c2nc3cc[nH]c3nc2N)[n+](CC)c2ccc(C3CCNCC3)cc21 [Example 30, 2-[({3-amino-5H-pyrrolo[2,3-b]pyrazin-2-yl}formamido)methyl]-1,3-diethyl-6-(piperidin-4-yl)-1H-1,3-benzodiazol-3-ium] | 6 nM
2 | CCn1c(CNC(=O)c2nc3cc[nH]c3nc2N)[n+](CC)c2ccc(-c3cnn(C4CCNCC4)c3)cc21 [Example 31, 2-[({3-amino-5H-pyrrolo[2,3-b]pyrazin-2-yl}formamido)methyl]-1,3-diethyl-6-[1-(piperidin-4-yl)-1H-pyrazol-4-yl]-1H-1,3-benzodiazol-3-ium] | 1 nM
3 | CCn1c(CNC(=O)c2nc3cc[nH]c3nc2N)[n+](CC)c2ccc(C(=O)NCCCNC(=O)OC(C)(C)C)cc21 [Example 35, 2-[({3-amino-5H-pyrrolo[2,3-b]pyrazin-2-yl}formamido)methyl]-6-[(3-{[(tert-butoxy)carbonyl]amino}propyl)carbamoyl]-1,3-diethyl-1H-1,3-benzodiazol-3-ium formic acid] | 5 nM
4 | CCn1c(CNC(=O)c2nc3cc[nH]c3nc2N)[n+](CC)c2ccc(C(=O)NC3CCN(C(=O)OC(C)(C)C)CC3)cc21 [Example 36, 2-[({3-amino-5H-pyrrolo[2,3-b]pyrazin-2-yl}formamido)methyl]-6-({1-[(tert-butoxy)carbonyl]piperidin-4-yl}carbamoyl)-1,3-diethyl-1H-1,3-benzodiazol-3-ium] | 3 nM
5 | CCn1c(CNC(=O)c2nc3cc[nH]c3nc2N)[n+](CC)c2ccc(C(=O)NCCN3CCC(NC(=O)OC(C)(C)C)CC3)cc21 [Example 38, 2-[({3-amino-5H-pyrrolo[2,3-b]pyrazin-2-yl}formamido)methyl]-6-{[2-(4-{[(tert-butoxy)carbonyl]amino}piperidin-1-yl)ethyl]carbamoyl}-1,3-diethyl-1H-1,3-benzodiazol-3-ium] | 9 nM
6 | CCn1c(CNC(=O)c2nc3cc[nH]c3nc2N)[n+](CC)c2ccc(C(=O)NCCN3CCC(N)CC3)cc21 [Example 42, 2-[({3-amino-5H-pyrrolo[2,3-b]pyrazin-2-yl}formamido)methyl]-6-{[2-(4-aminopiperidin-1-yl)ethyl]carbamoyl}-1,3-diethyl-1H-1,3-benzodiazol-3-ium] | 10 nM
7 | CCn1c(CNC(=O)c2nc3cc[nH]c3nc2N)[n+](CC)c2ccc(OCCN(C[C@H](O)[C@@H](O)[C@H](O)[C@H](O)CO)C[C@H](O)[C@@H](O)[C@H](O)[C@H](O)CO)cc21 [Example 43, 2-[({3-amino-5H-pyrrolo[2,3-b]pyrazin-2-yl}formamido)methyl]-5-(2-{bis[(2S,3R,4R,5R)-2,3,4,5,6-pentahydroxyhexyl]amino}ethoxy)-1,3-diethyl-1H-1,3-benzodiazol-3-ium] | 51 nM

Further lines, results first:

Row | IC50 | SMILES
8 | 5 nM | CCn1c(CNC(=O)c2nc3cc[nH]c3nc2N)[n+](CC)c2ccc(CCCN)cc21 [Example 29, 2-[({3-amino-5H-pyrrolo[2,3-b]pyrazin-2-yl}formamido)methyl]-6-(3-aminopropyl)-1,3-diethyl-1H-1,3-benzodiazol-3-ium]
9 | 3 nM | CCn1c(CNC(=O)c2nc3cc[nH]c3nc2N)[n+](CC)c2ccc(OCCNC(=N)N)cc21 [Example 32, 2-[({3-amino-5H-pyrrolo[2,3-b]pyrazin-2-yl}formamido)methyl]-6-(2-carbamimidamidoethoxy)-1,3-diethyl-1H-1,3-benzodiazol-3-ium]
10 | 3 nM | CCn1c(CNC(=O)c2nc3cc[nH]c3nc2N)[n+](CC)c2ccc(CCCNC(=N)N)cc21 [Example 33, 2-[({3-amino-5H-pyrrolo[2,3-b]pyrazin-2-yl}formamido)methyl]-6-(3-carbamimidamidopropyl)-1,3-diethyl-1H-1,3-benzodiazol-3-ium]
11 | 160 nM | CCn1c(CNC(=O)c2nc3cc[nH]c3nc2N)[n+](CC)c2ccc(C(=O)O)cc21 [Example 34, 2-[({3-amino-5H-pyrrolo[2,3-b]pyrazin-2-yl}formamido)methyl]-6-carboxy-1,3-diethyl-1H-1,3-benzodiazol-3-ium]
12 | 15 nM | CCn1c(CNC(=O)c2nc3cc[nH]c3nc2N)[n+](CC)c2ccc(C(=O)NCCCN)cc21 [Example 39, 2-[({3-amino-5H-pyrrolo[2,3-b]pyrazin-2-yl}formamido)methyl]-6-[(3-aminopropyl)carbamoyl]-1,3-diethyl-1H-1,3-benzodiazol-3-ium]
13 | 7 nM | CCn1c(CNC(=O)c2nc3cc[nH]c3nc2N)[n+](CC)c2ccc(C(=O)NC3CCNCC3)cc21 [Example 40, 2-[({3-amino-5H-pyrrolo[2,3-b]pyrazin-2-yl}formamido)methyl]-1,3-diethyl-6-[(piperidin-4-yl)carbamoyl]-1H-1,3-benzodiazol-3-ium]
14 | 11 nM | CCn1c(CNC(=O)c2nc3cc[nH]c3nc2N)[n+](CC)c2ccc(C(=O)N3CCC(N)CC3)cc21 [Example 41, 2-[({3-amino-5H-pyrrolo[2,3-b]pyrazin-2-yl}formamido)methyl]-6-(4-aminopiperidine-1-carbonyl)-1,3-diethyl-1H-1,3-benzodiazol-3-ium]
